According to patent US20240425710A1, “PEPTIDE-BASED BIOINK COMPOSITIONS” (Ramot at Tel-Aviv University Ltd., priority 2022, published 2024):
The star is where a group is joined. Fmoc = O=C(OCC1c2ccccc2-c2ccccc21)*

Columns and labels:
Assay type in all cases: physicochemical
[1] = Hydrogel formation, inverted tubes after overnight gelation; conditions: single peptide, 5 g·L−1 in water from DMSO stock
Protocol: Preparation of hydrogels: Stock solutions of each of Fmoc-FF, PepA and PepB were prepared by dissolving the respective peptides in dimethyl sulfoxide (DMSO) at a concentration of 100 gram/liter (g·L^−1). The hydrogels were prepared by diluting the stock solution in double distilled water to a final concentration of 5 grams/Liter (5 g·L^−1), to thereby obtain a hydrogel formulation. The mixture was vortexed for 2 seconds and then incubated at room temperature until gelation occurred, thereby providing a hydrogel bioink composition.
Hydrogels made of a single peptide and hybrid hydrogels made of two peptides were prepared using the solvent switch method by dissolving the monomers in DMSO and then diluting the stock solutions into water to a final concentration of 5 g-L.

[2] = TEM imaging of hydrogel fibrils; conditions: hydrogels 5 g·L−1
Protocol: Transmission electron microscopy (TEM): Samples (10 μl) were placed on copper grids (400 mesh) covered with a carbon-stabilized Formvar film (EMS, BNFFA1000-Cu). After 2 minutes, excess gel was removed, and the grids were negatively stained with 10 μl of UranylLess staining solution for 1 minute. Finally, excess fluid was removed, and the samples were viewed in a JEM 1400plus electron microscope operating at 80 kV.

[3] = Time sweep rheology of peptide hydrogels and hybrid hydrogels; conditions: 5 Hz; for G′/G″ / G′ (storage modulus) / G″ (loss modulus): hydrogels 5 g·L−1, time sweep 0.5% strain; for G′ (storage modulus): after 4 hours of gelation; for G′ (storage modulus) / G″ (loss modulus): room temperature
Protocol: Rheological measurements: Rheological analysis was performed using an AR-G2 controlled rheometer (TA Instruments, New Castle, DA, USA). Oscillatory strain (0.01-100%) and frequency sweep (0.01-100 Hz) were conducted on 100 μL samples of pre gelated disks, 8 mm in diameter. The measurement was conducted with an 8 mm geometry (resulting in a gap size of 1 mm) at room temperature, in order to define the viscoelastic region in which the oscillatory test was performed.
Time-sweep oscillatory analyses used a constant a frequency of 5 Hz and a strain of 0.5%. Freshly prepared samples (220 μL) were placed under a 20 mm parallel plate geometry (resulting in a gap of 0.6 mm) at room temperature to determine the G′ (storage modulus) and G″, (loss modulus) for each sample.
The in situ kinetics of the hydrogels formation and their mechanical properties were characterized by time sweep measurements over 4 hours at a fixed strain of 0.5% and frequency of 5 Hz, and the results are presented in FIGS. 3A-B.

[4] = Absorbance kinetics of the hydrogel formation (turbidity at 400 nm)
Protocol: Absorbance kinetics of the hydrogel formation: Samples of 100 μL of Fmoc-FF, PegA, PepB formulations and the co-assembled hydrogels (bioink compositions) were placed into a 96-well plate. Absorbance at 400 nm was measured every 30 seconds using a TECAN Infinite M2000PRO plate reader for a total of 4 hours.
To further evaluate the impact of co-assembly on gelation kinetics, the absorbance spectra of the hybrid hydrogels compared to the Fmoc-FF hydrogel at 400 nm was monitored over time and the results are presented in FIGS. 8A-B.

| Substance | hydrogel formation [1] | fibril diameter [2] | G′/G″ [3] | G′ (storage modulus) [3] | G″ (loss modulus) [3] | time to gelation / plateau of hydrogel formation ([3]; time sweep over 4 hours, 0.5% strain, 5 g·L−1) | time to form a clear hydrogel (absorbance drop) ([4]; absorbance at 400 nm monitored over time) | OD value reached ([4]; absorbance at 400 nm, minimum after clearing) |
| --- | --- | --- | --- | --- | --- | --- | --- | --- |
| Fmoc-Phe-Phe-OH [Fmoc-FF, reference compound] | rigid and stable | 16 nm | 37 | 9552 Pa | 251 Pa | ≤ 4 min | within a few minutes | 0.1 OD |
| Fmoc-Phe-Phe-EG6-COOH [PepB] | did not form a hydrogel at all | – | 0 | 1 Pa | 1 Pa | – | – | – |
| Fmoc-Phe-Phe-EG2—COOH [PepA] | formed a weak hydrogel | 9 nm | 3 | 157 Pa | 42 Pa | – | – | – |
